Measurements from ChEMBL document CHEMBL4840312, “Discovery of memantyl urea derivatives as potent soluble epoxide hydrolase inhibitors against lipopolysaccharide-induced sepsis” (Eur J Med Chem, 2021).

Key:
[1] = target: T1, Bifunctional epoxide hydrolase 2 (Mus musculus, UniProt P34914)
T1 sequence (P34914 whole entry): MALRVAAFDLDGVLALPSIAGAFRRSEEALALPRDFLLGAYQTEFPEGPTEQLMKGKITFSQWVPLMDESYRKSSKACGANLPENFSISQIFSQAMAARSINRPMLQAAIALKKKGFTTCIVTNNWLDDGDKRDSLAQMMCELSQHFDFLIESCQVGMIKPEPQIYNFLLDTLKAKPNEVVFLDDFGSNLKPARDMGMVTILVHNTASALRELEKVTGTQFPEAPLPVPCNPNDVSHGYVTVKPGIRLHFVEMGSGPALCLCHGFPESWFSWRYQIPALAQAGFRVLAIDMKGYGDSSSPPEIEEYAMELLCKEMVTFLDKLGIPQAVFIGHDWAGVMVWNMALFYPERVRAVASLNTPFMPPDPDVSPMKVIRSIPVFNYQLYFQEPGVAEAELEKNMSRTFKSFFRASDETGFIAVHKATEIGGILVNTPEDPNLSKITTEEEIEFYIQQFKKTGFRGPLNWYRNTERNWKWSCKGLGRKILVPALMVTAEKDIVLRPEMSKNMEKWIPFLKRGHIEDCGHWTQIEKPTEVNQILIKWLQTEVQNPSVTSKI
Description: Inhibition of mouse recombinant sEH using PHOME as substrate measured after 10 mins by fluorescent based assay

[2] = target: T2, Bifunctional epoxide hydrolase 2 (Homo sapiens, UniProt P34913)
T2 sequence (P34913 whole entry): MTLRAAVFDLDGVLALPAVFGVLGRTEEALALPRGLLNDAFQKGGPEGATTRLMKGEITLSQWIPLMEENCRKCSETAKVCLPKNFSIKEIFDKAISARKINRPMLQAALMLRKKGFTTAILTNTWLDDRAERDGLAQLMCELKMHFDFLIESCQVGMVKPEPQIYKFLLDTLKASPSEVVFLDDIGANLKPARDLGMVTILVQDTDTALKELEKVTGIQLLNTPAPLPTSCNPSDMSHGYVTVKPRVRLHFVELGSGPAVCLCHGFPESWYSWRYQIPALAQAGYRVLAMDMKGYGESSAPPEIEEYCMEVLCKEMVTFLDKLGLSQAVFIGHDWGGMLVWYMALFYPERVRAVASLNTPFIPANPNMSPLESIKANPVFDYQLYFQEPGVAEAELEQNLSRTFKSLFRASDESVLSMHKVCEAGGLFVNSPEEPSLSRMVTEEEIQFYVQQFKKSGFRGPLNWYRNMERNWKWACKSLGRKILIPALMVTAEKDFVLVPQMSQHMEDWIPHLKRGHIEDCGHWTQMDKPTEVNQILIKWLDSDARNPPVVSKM
Description: Inhibition of human recombinant sEH using PHOME as substrate measured after 10 mins by fluorescent based assay

[3] = Reversible toxicity in ICR mouse assessed as eye secretion at 100 mg/kg, ip administered as single dose observed for 14 days; type: organism-based; details: in vivo, 336 h, time 14 day
[4] = Acute toxicity in ICR mouse assessed as body weight at 100 mg/kg, ip administered as single dose observed for 14 days; type: organism-based; details: in vivo, 336 h, time 14 day
Mus musculus [5] = experiment: Effect on C57BL/6 mouse model of LPS induced sepsis assessed as survival rate in 72 hrs at 5 mg/kg, ip (reference value: 28.6%); type: functional; details: C57BL/6, ip
Mus musculus [6] = experiment: Effect on C57BL/6 mouse model of LPS induced sepsis assessed as survival rate in 24 hrs at 5 mg/kg, ip (reference value: 71.4%); type: functional; details: C57BL/6, ip
[7] = AUC (0 to 24 hrs) in Sprague-Dawley rat at 30 mg/kg, po administered as single dose upto 24 hrs by LC-MS analysis; type: ADME, organism-based; design: route oral, dose 30 mg/kg, time <=24; details: in vivo
[8] = Clearance in Sprague-Dawley rat at 30 mg/kg, po administered as single dose upto 24 hrs by LC-MS analysis; type: ADME, organism-based; details: in vivo
[9] = Microsomal stability in human liver microsomes assessed as substrate remaining in presence of NADPH measured after 30 mins by LC-MS/MS analysis; details: 0.5 h
[10] = AUC (0 to infinity) in Sprague-Dawley rat at 30 mg/kg, po administered as single dose upto 24 hrs by LC-MS analysis; type: ADME, organism-based; design: route oral, dose 30 mg/kg, time <=24; details: in vivo
[11] = AUC (0 to 24 hrs) in Sprague-Dawley rat at 3 mg/kg, iv administered as single dose upto 24 hrs by LC-MS analysis; type: ADME, organism-based; design: route intravenous, dose 3 mg/kg, time <=24; details: in vivo
[12] = Microsomal stability in human liver microsomes assessed as substrate remaining in presence of NADPH measured after 10 mins by LC-MS/MS analysis
[13] = Cmax in Sprague-Dawley rat at 30 mg/kg, po administered as single dose upto 24 hrs by LC-MS analysis; type: ADME, organism-based; design: route oral, dose 30 mg/kg, time <=24; details: in vivo
[14] = Volume of distribution in Sprague-Dawley rat at 3 mg/kg, iv administered as single dose upto 24 hrs by LC-MS analysis; type: ADME, organism-based; details: in vivo
[15] = Clearance in Sprague-Dawley rat at 3 mg/kg, iv administered as single dose upto 24 hrs by LC-MS analysis; type: ADME, organism-based; details: in vivo
[16] = Microsomal stability in human liver microsomes assessed as substrate remaining in presence of NADPH measured after 20 mins by LC-MS/MS analysis
[17] = Volume of distribution in Sprague-Dawley rat at 30 mg/kg, po administered as single dose upto 24 hrs by LC-MS analysis; type: ADME, organism-based; details: in vivo
[18] = Microsomal stability in human liver microsomes assessed as substrate remaining in presence of NADPH measured after 5 mins by LC-MS/MS analysis
[19] = Microsomal stability in human liver microsomes assessed as substrate remaining in presence of NADPH measured after 60 mins by LC-MS/MS analysis; details: 1 h
[20] = Cmax in Sprague-Dawley rat at 3 mg/kg, iv administered as single dose upto 24 hrs by LC-MS analysis; type: ADME, organism-based; design: route intravenous, dose 3 mg/kg, time <=24; details: in vivo

Row | Compound | IC50 [1] | IC50 [2] | also measured
1 | O=C(Nc1ccc(C(=O)N2CCCCC2)cc1)NC12CC3CC(CC(O)(C3)C1)C2 | 88.8 nM | 120 nM | 
2 | CC(C)CNC(=O)CCCC(=O)NC1C2CC3CC(C2)CC1C3 (centres undefined) | 2270 nM | 3580 nM | 
3 | CC12CC3CC(C)(C1)CC(NC(=O)CCC(=O)NC1CCCCC1)(C3)C2 | 180 nM | 7890 nM | 
4 | CC12CC3CC(C)(C1)CC(NC(=O)/C=C\C(=O)N1CCCCC1)(C3)C2 | 81200 nM | 21500 nM | 
5 | O=C(Nc1ccc(C(=O)N2CCCCC2)cc1)NC1C2CC3CC1CC(O)(C3)C2 (centres undefined) | 497 nM | 217 nM | 
6 | CC(NC(=O)Nc1ccc(C(=O)NC2CCCCC2)cc1)C12CC3CC(CC(C3)C1)C2 (centres undefined) | 13.7 nM | 217 nM | 
7 | CC(C)CNC(=O)CCC(=O)NC12CC3CC(C)(CC(C)(C3)C1)C2 | 4130 nM | 18900 nM | 
8 | CC(C)CNC(=O)c1ccc(NC(=O)NC2C3CC4CC2CC(O)(C4)C3)cc1 (centres undefined) | 2350 nM | 249 nM | 
9 | O=C(Nc1ccc(C(=O)NC2CCCCC2)cc1)NC1C2CC3CC(C2)CC1C3 (centres undefined) | 0.4 nM | 1.4 nM | Activity [3]: Toxic
10 | CC12CC3CC(C)(C1)CC(NC(=O)Nc1ccc(C(=O)NC4CCCCC4)cc1)(C3)C2 | 0.4 nM | 2.3 nM | Activity [4]: Non-Toxic
11 | CC(NC(=O)Nc1ccc(C(=O)N2CCCCC2)cc1)C12CC3CC(CC(C3)C1)C2 (centres undefined) | 2.4 nM | 3.9 nM | 
12 | CC(C)CNC(=O)c1ccc(C(=O)NC23CC4CC(C)(CC(C)(C4)C2)C3)cc1 | 6540 nM | > 100000 nM | 
13 | O=C(Nc1ccc(C(=O)NC2CCCCC2)cc1)NC12CC3CC(CC(O)(C3)C1)C2 | 94.2 nM | 796 nM | 
14 | CC(C)CNC(=O)/C=C/C(=O)NC12CC3CC(C)(CC(C)(C3)C1)C2 | 21100 nM | 9620 nM | 
15 | CC(C)CNC(=O)c1ccc(NC(=O)NC2C3CC4CC(C3)CC2C4)cc1 (centres undefined) | 0.4 nM | 0.9 nM | Activity [3]: Toxic; Activity [4]: Non-Toxic
16 | C[C@@H]1C[C@H]2[C@@H]3CCC4=CC(=O)C=C[C@]4(C)[C@@]3(F)[C@@H](O)C[C@]2(C)[C@@]1(O)C(=O)CO [DEXAMETHASONE] |  |  | survival at 5 mg/kg (Mus musculus [5]): 100%; survival at 5 mg/kg (Mus musculus [6]): 100%
17 | CC12CC3CC(C)(C1)CC(NC(=O)c1ccc(C(=O)N4CCCCC4)cc1)(C3)C2 | 60700 nM | 26400 nM | 

Row | Compound | IC50 [1] | IC50 [2] | also measured
18 | CC(C)CNC(=O)c1ccc(NC(=O)NC23CC4CC(C)(CC(C)(C4)C2)C3)cc1 | 0.4 nM | 0.7 nM | Activity [4]: Non-Toxic
19 | CC(C)CNC(=O)CCCC(=O)NC12CC3CC(C)(CC(C)(C3)C1)C2 | 225 nM | 6230 nM | 
20 | O=C(Nc1ccc(C(=O)N2CCCCC2)cc1)NC1C2CC3CC(C2)CC1C3 (centres undefined) | 0.4 nM | 0.4 nM | Activity [4]: Non-Toxic
21 | CC(C)CNC(=O)CCC(=O)NC(C)C12CC3CC(CC(C3)C1)C2 (centres undefined) | 43.5 nM | 50.8 nM | 
22 | CC12CC3CC(C)(C1)CC(NC(=O)CCCC(=O)NC1CCCCC1)(C3)C2 | 8.3 nM | 1590 nM | 
23 | CC12CC3CC(C)(C1)CC(NC(=O)c1ccc(C(=O)NC4CCCCC4)cc1)(C3)C2 | 1020 nM | 6290 nM | 
24 | CC12CC3CC(C)(C1)CC(NC(=O)Nc1ccc(C(=O)N4CCCCC4)cc1)(C3)C2 |  |  | AUC(0-t) [7]: 1.3 µM·h; Activity [3]: Toxic; CLH [8]: 4496.5 mL/min/kg; residual activity [9]: 17.1%; AUC [10]: 1.305 µM·h; AUC(0-t) [11]: 1.83 µM·h; residual activity [12]: 43%; Cmax [13]: 330 nM; Vd [14]: 7.83 L/kg; CLH [15]: 71.7 mL/min/kg; residual activity [16]: 26.4%; Vd [17]: 1097.8 L/kg; residual activity [18]: 58.9%; residual activity [19]: 12.4%; Cmax [20]: 3640 nM
25 | CC(C)CNC(=O)c1ccc(NC(=O)NC23CC4CC(CC(O)(C4)C2)C3)cc1 | 291 nM | 949 nM | 
26 | O=C(Nc1ccc(C(=O)NC2CCCCC2)cc1)NC1C2CC3CC1CC(O)(C3)C2 (centres undefined) | 463 nM | 493 nM | 
27 | CC12CC3CC(C)(C1)CC(NC(=O)CCC(=O)N1CCCCC1)(C3)C2 | 21700 nM | 2470 nM | 
28 | CC(C)CNC(=O)CCCC(=O)NC1C2CC3CC1CC(O)(C3)C2 (centres undefined) | 106 nM | 41.6 nM | 
29 | CC(C)CNC(=O)c1ccc(NC(=O)NC(C)C23CC4CC(CC(C4)C2)C3)cc1 (centres undefined) | 28.8 nM | 59.8 nM | 
30 | CC(C)CNC(=O)CCCC(=O)NC(C)C12CC3CC(CC(C3)C1)C2 (centres undefined) | 694 nM | 7320 nM | 
31 | CC12CC3CC(C)(C1)CC(NC(=O)/C=C/C(=O)NC1CCCCC1)(C3)C2 | 5520 nM | 24400 nM | 
32 | CC(=O)N1CCC(NC(=O)NC23CC4CC(CC(C4)C2)C3)CC1 [AR9281] |  |  | Activity [3]: Toxic
33 | CC12CC3CC(C)(C1)CC(NC(=O)CCCC(=O)N1CCCCC1)(C3)C2 | 5840 nM | 5930 nM | 
